Experiments:
Assay type in all cases: in vivo
[1] = system: Diabrotica balteata (Corn Root Worm); test: Example B1: Diabrotica balteata (Corn Root Worm), sprayed maize sprouts; conditions: 96 h, application rate of 200 ppm, L2 larvae, 4 days after infestation, read-out: control in at least one of the two categories (mortality or growth inhibition)
Method: Example B1: Diabrotica balteata (Corn Root Worm)
Maize sprouts placed onto an agar layer in 24-well microtiter plates were treated with aqueous test solutions prepared from 10′000 ppm DMSO stock solutions by spraying. After drying, the plates were infested with L2 larvae (6 to 10 per well). The samples were assessed for mortality and growth inhibition in comparison to untreated samples 4 days after infestation.

[2] = system: Chilo suppressalis (Striped Rice Stemborer); test: Example B4: Chilo suppressalis (Striped Rice Stemborer), artificial diet; conditions: 144 h, application rate of 200 ppm, L2 larvae, 6 days after infestation, read-out: control in at least one of the three categories (mortality, anti-feedant or growth inhibition)
Summary of the method: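 Artificial diet was treated with aqueous dilutions made from 10'000 ppm DMSO stocks, dried, then infested with L2 larvae at 6–8 per well. Mortality, antifeedant effect and growth inhibition were assessed against untreated samples 6 days after infestation.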

[3] = system: Plutella xylostella (Diamond Back Moth); test: Example B5: Plutella xylostella (Diamond Back Moth), artificial diet, 24-well; conditions: 192 h, application rate of 200 ppm, eggs, 8 days after infestation, read-out: control in at least one of the two categories (mortality or growth inhibition)
Method: Example B5: Plutella xylostella (Diamond Back Moth)
24-well microtiter plates with artificial diet were treated with aqueous test solutions prepared from 10′000 ppm DMSO stock solutions by pipetting. After drying, Plutella eggs were pipetted through a plastic stencil onto a gel blotting paper and the plate was closed with it. The samples were assessed for mortality and growth inhibition in comparison to untreated samples 8 days after infestation.

[4] = system: Spodoptera littoralis (Egyptian Cotton Leaf Worm); test: Example B9: Spodoptera littoralis (Egyptian Cotton Leaf Worm), sprayed cotton leaf discs; conditions: foliar, 72 h, application rate of 200 ppm, L1 larvae, 3 days after infestation, read-out: control in at least one of the three categories (mortality, anti-feedant or growth inhibition)
[5] = system: Tetranychus urticae (Two-Spotted Spider Mite); test: Example B11: Tetranychus urticae (Two-Spotted Spider Mite), sprayed bean leaf discs; conditions: foliar, 192 h
Method: Example B11: Tetranychus urticae (Two-Spotted Spider Mite)
Bean leaf discs on agar in 24-well microtiter plates were sprayed with aqueous test solutions prepared from 10′000 ppm DMSO stock solutions. After drying the leaf discs were infested with a mite population of mixed ages. The samples were assessed for mortality on mixed population (mobile stages) 8 days after infestation.

[6] = system: Plutella xylostella (Diamondback Moth); test: Example B13: Plutella xylostella (Diamondback Moth), artificial diet, 96-well; conditions: 216 h, application rate of 500 ppm, eggs/L1 larvae, 9 days after infestation
Method: Example B13: Plutella xylostella (Diamondback Moth)
96-well microtiter plates containing artificial diet were treated with aqueous test solutions, prepared from 10′000 ppm DMSO stock solutions, by a liquid handling robot. After drying, eggs (˜30 per well) were infested onto a netted lid which was suspended above the diet. The eggs hatch and L1 larvae move down to the diet. The samples were assessed for mortality 9 days after infestation.

[7] = system: Euschistus heros (Neotropical Brown Stink Bug); test: Example B2: Euschistus heros (Neotropical Brown Stink Bug), sprayed soybean leaves; conditions: 120 h, application rate of 200 ppm, N2 nymphs, 5 days after infestation, read-out: control in at least one of the two categories (mortality or growth inhibition)
Method: Example B2: Euschistus heros (Neotropical Brown Stink Bug)
Soybean leaves on agar in 24-well microtiter plates were sprayed with aqueous test solutions prepared from 10′000 ppm DMSO stock solutions. After drying the leaves were infested with N2 nymphs. The samples were assessed for mortality and growth inhibition in comparison to untreated samples 5 days after infestation.

[8] = system: Frankliniella occidentalis (Western Flower Thrips); test: Example B3: Frankliniella occidentalis (Western Flower Thrips): Feeding/Contact Activity; conditions: 168 h, application rate of 200 ppm, population of mixed ages, 7 days after infestation
Method: Example B3: Frankliniella occidentalis (Western Flower Thrips): Feeding/Contact Activity
Sunflower leaf discs were placed on agar in 24-well microtiter plates and sprayed with aqueous test solutions prepared from […] stock solutions. After drying the leaf discs were infested with a Frankliniella population of mixed ages. The samples were assessed for mortality 7 days after infestation.

[9] = system: Myzus persicae (Green Peach Aphid); test: Example B8: Myzus persicae (Green Peach Aphid): Intrinsic Activity; conditions: 120 h, test rate of 12 ppm, sucrose solution, 5 days after infestation
Source text: Example B8: Myzus persicae (Green Peach Aphid): Intrinsic Activity
Test compounds prepared from 10′000 ppm DMSO stock solutions were applied by pipette into 24-well microtiter plates and mixed with sucrose solution. The plates were closed with a stretched Parafilm. A plastic stencil with 24 holes was placed onto the plate and infested pea seedlings were placed directly on the Parafilm. The infested plate was closed with a gel blotting paper and another plastic stencil and then turned upside down. The samples were assessed for mortality 5 days after infestation.

[10] = system: Myzus persicae (Green Peach Aphid); test: Example B6: Myzus persicae (Green Peach Aphid): Feeding/Contact Activity; conditions: 144 h, application rate of 200 ppm, aphid population of mixed ages, 6 days after infestation
Method: Example B6: Myzus persicae (Green Peach Aphid): Feeding/Contact Activity
Sunflower leaf discs were placed onto agar in a 24-well microtiter plate and sprayed with aqueous test solutions prepared from 10′000 ppm DMSO stock solutions. After drying, the leaf discs were infested with an aphid population of mixed ages. The samples were assessed for mortality 6 days after infestation.

CC(NC(=O)c1cc(C(F)(F)F)nc(C2(C#N)CC2)c1)c1nccnc1-c1ccc(OCC(F)F)cn1 (centres unmarked) [P22, 2-(1-cyanocyclopropyl)-N-[1-[3-[5-(2,2-difluoroethoxy)-2-pyridyl]pyrazin-2-yl]ethyl]-6-(trifluoromethyl)pyridine-4-carboxamide]
≥ 80%: percent control (mortality or growth inhibition) at 200 ppm [1] | percent control (mortality, anti-feedant effect or growth inhibition) at 200 ppm [2] | percent control (mortality or growth inhibition) at 200 ppm [3] | percent control (mortality, anti-feedant effect or growth inhibition) at 200 ppm [4] | mortality at 200 ppm [5] | mortality at 500 ppm [6]

CC(NC(=O)c1cc(C(F)(F)F)cc(C(C)(C)C#N)c1)c1nccnc1-c1ncc(OCC(F)F)cn1 (centres unmarked) [P48, 3-(1-cyano-1-methyl-ethyl)-N-[1-[3-[5-(2,2-difluoroeth-oxy)pyrimidin-2-yl]pyrazin-2-yl]ethyl]-5-(trifluoro-methyl)benzamide]
≥ 80%: percent control (mortality or growth inhibition) at 200 ppm [1] | percent control (mortality or growth inhibition) at 200 ppm [7] | mortality at 200 ppm [8] | percent control (mortality, anti-feedant effect or growth inhibition) at 200 ppm [2] | percent control (mortality or growth inhibition) at 200 ppm [3] | mortality at 12 ppm [9] | percent control (mortality, anti-feedant effect or growth inhibition) at 200 ppm [4]

CC(NC(=O)c1cc(C(F)(F)F)cc(C2(C#N)CC2)c1)c1nccnc1-c1ncc(OCC(F)F)cn1 (centres unmarked) [P49, 3-(1-cyanocyclopropyl)-N-[1-[3-[5-(2,2-difluoroethoxy)pyrimidin-2-yl]pyrazin-2-yl]ethyl]-5-(trifluoromethyl)benzamide]
≥ 80%: percent control (mortality or growth inhibition) at 200 ppm [1] | percent control (mortality or growth inhibition) at 200 ppm [7] | percent control (mortality, anti-feedant effect or growth inhibition) at 200 ppm [2] | percent control (mortality or growth inhibition) at 200 ppm [3] | mortality at 200 ppm [10] | mortality at 12 ppm [9] | percent control (mortality, anti-feedant effect or growth inhibition) at 200 ppm [4]
